Converted amounts (≈) assume the structure as drawn.
How the values were obtained:
[1] = In vivo pharmacokinetic study in rats, whole lung (IV and PO); conditions: male, Sprague-Dawley, 5 mg/kg, rat; for half-life: IV, whole lung, read-out: t1/2, IV Lung (converted); for Kp: lung/plasma, iv, read-out: L/P ratio, IV
Description: (§1) Animal Models. A total of 54 male Sprague-Dawley rats, weighing 200 grams in average, were evaluated for pharmacokinetic studies of representative pyridyl substituted ketolides. Rats were under overnight food restriction and received water ad libitum. Rats were acclimated for approximately 5 days before antibiotic administration.
(§2) Antibiotic Administration. Rats were given bolus administration through (IV) and oral (PO) routes. Representative pyridyl substituted ketolides and telithromycin, for comparison, were diluted in 0.85% saline to a concentration of 15.0 mg/ml, and the resulting pH was adjusted using 1N acetic acid until the compound was in solution. Approximately 200 microliters of the compound solution was administered to the rats. The target dose for IV and PO administration was 5 mg/kg and 15 mg/kg, respectively.
(§3) Sample Collection. Plasma and whole lung samples were collected from the rats. Plasma samples were obtained from blood samples by centrifugation at 3000 RPM for 10 min. Heparin was added in the plasma as an anticoagulant. Whole lung samples were homogenized in deionized water. Samples were stored at −80° C. A total of 9 time points were collected in triplicate at 0.083, 0.25, 0.5, 1, 2, 4, 6, 8, and 24 hrs. Ketolide concentrations in plasma and lung were determined by well-established non-GLP LC-MS-MS methods. PK parameters were estimated from the raw bioanalytical data using WinNolin software (Version 4.0, Pharsight Corporation, CA). […] All representative compounds were compared to telithromycin.

[2] = test system: S. pneumoniae Stpn_Erm 6849; assay: MIC, broth microdilution (NCCLS); assay type: cell-based, Streptococcus pneumoniae; conditions: strain ID P; broth microdilution; in µg/mL (unit assumed)
In short: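 Lowest drug concentration giving no visible growth after 18-24 hours at 35° C. under 5-10% CO2 was taken as MIC. Twofold serial dilutions in CAMHB plus 2-5% lysed horse blood, final inoculum 3×10^5–7×10^5 CFU/ml, per NCCLS microdilution.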

[3] = test system: Streptococcus pyogenes Stpy_8668; assay: MIC, broth microdilution (NCCLS); assay type: cell-based; design: MIC, strain ID G: unit not given beside the values
In short: (§4)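 Broth microdilution per NCCLS in cation-adjusted Mueller-Hinton broth, with 2-5% lysed horse blood added for S. pneumoniae. Inoculum 3×10^5–7×10^5 CFU/ml, 2-fold drug dilutions, 18-24 h at 35° C; S. pneumoniae under 5-10% CO2, others ambient air. MIC = lowest concentration preventing visible growth.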

[4] = test system: Streptococcus pneumoniae Stpn_280-962; assay: MIC, broth microdilution (NCCLS); assay type: cell-based; design: MIC, strain ID O: unit not given beside the values
In short: as §4

[5] = test system: Staphylococcus aureus Stau_29213; assay: MIC, broth microdilution (NCCLS); assay type: cell-based
In short: as §4

[6] = test system: Haemophilus influenzae Hain_49247; assay: MIC, broth microdilution (NCCLS); assay type: cell-based; conditions: unit assumed
[7] = test system: Staphylococcus epidermidis Step_14990; assay: MIC, broth microdilution (NCCLS); assay type: cell-based
In short: as §4

[8] = test system: Staphylococcus epidermidis Step_f50654; assay: MIC, broth microdilution (NCCLS); assay type: cell-based
In short: as §4

[9] = test system: Streptococcus pneumoniae Stpn_Erm S 4297; assay: MIC, broth microdilution (NCCLS); assay type: cell-based
In short: as §4

[10] = test system: Enterococcus faecalis Enfa_29212; assay: MIC, broth microdilution (NCCLS); assay type: cell-based
In short: as §4

[11] = test system: Haemophilus influenzae Hain_953460299-3; assay: MIC, broth microdilution (NCCLS); assay type: cell-based; conditions: in µg/mL (unit assumed)
In short: (§5)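 Compounds dissolved in methanol, diluted in water, then 2-fold serially diluted in CAMHB (H. influenzae: Haemophilus Test Medium). Inoculated at 3×10^5–7×10^5 CFU/ml from 0.5 McFarland suspension, incubated 35° C for 18-24 h, and scored for visible growth.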

[12] = test system: Haemophilus influenzae Hain_960730503-3; assay: MIC, broth microdilution (NCCLS); assay type: cell-based; conditions: in µg/mL (unit assumed)
In short: as §5

[13] = test system: Staphylococcus aureus Stau_33591; assay: MIC, broth microdilution (NCCLS); assay type: cell-based; conditions: unit assumed
In short: as §5

[14] = test system: Haemophilus influenzae Hain_2762; assay: MIC, broth microdilution (NCCLS); assay type: cell-based; conditions: in µg/mL (unit assumed)
In short: as §5

[15] = test system: Haemophilus influenzae Hain_960820544-3; assay: MIC, broth microdilution (NCCLS); assay type: cell-based; conditions: in µg/mL (unit assumed)
In short: as §5

[16] = test system: Enterococcus faecalis Enfa_bc 11148-2; assay: MIC, broth microdilution (NCCLS); assay type: cell-based; conditions: in µg/mL (unit assumed)
In short: as §5

[17] = test system: Streptococcus pneumoniae Stpn_297-749; assay: MIC, broth microdilution (NCCLS); assay type: cell-based; design: MIC, strain ID N: unit not given here
In short: as §4

[18] = In vivo pharmacokinetic study in rats, plasma (IV and PO); design: species or system Sprague-Dawley rats; conditions: rat; for half-life / AUC / clearance / Vd: male, Sprague-Dawley, plasma; for half-life: 5 mg/kg, read-out: t1/2, IV Plasma (converted); for half-life / AUC: IV; for AUC: dose IV = 5 mg/kg (Compound XIV: IV = 15); for clearance / Vd: intravenous; for Vd: read-out: Vss; for F, PO: PO = 15 mg/kg
Description: as §1, §2, §3

[19] = test system: Streptococcus pneumoniae Stpn_49619; assay: MIC, broth microdilution (NCCLS); assay type: cell-based; design: MIC, strain ID M: unit not given beside the values
In short: as §4

[20] = test system: Streptococcus pneumoniae Stpn_Mef S 3427; assay: MIC, broth microdilution (NCCLS); assay type: cell-based; conditions: Table 10, Strain ID Q (Table 8): Streptococcus pneumoniae Stpn_Mef S 3427
In short: as §4

[21] = test system: Streptococcus pneumoniae Stpn_Mef 5654; assay: MIC, broth microdilution (NCCLS); assay type: cell-based; conditions: Table 10, Strain ID P (Table 8): Streptococcus pneumoniae Stpn_Mef 5654; in µg/mL (unit assumed)
In short: as §4

Compound: C=C[C@]12OC(=O)N(CCCCn3cnc(-c4cnccc4Cl)c3)[C@@H]1[C@@H](C)C(=O)[C@H](C)C[C@](C)(OC)[C@H](OC1O[C@H](C)C[C@H](N(C)C)[C@H]1O)[C@@H](C)C(=O)[C@@H](C)C(=O)O[C@@H]2CC (stereo partly shown) [XXX]
- half-life [1]: 1.2 h
- Kp [1]: 75
- MIC, strain ID P [2]: 0.4
- MIC, strain ID G ([3]; strain ID G, broth microdilution): =0.05
- MIC, strain ID O ([4]; strain ID O, broth microdilution): =0.05
- MIC, strain ID A ([5]; strain ID A, broth microdilution, in µg/mL (unit assumed)): 0.2
- MIC, strain ID H ([6]; strain ID H, broth microdilution): 3.13 µg/mL (≈ 3.65 µM)
- MIC, strain ID C ([7]; strain ID C, broth microdilution, in µg/mL (unit assumed)): 0.2
- MIC, strain ID D ([8]; strain ID D, broth microdilution, in µg/mL (unit assumed)): 0.1
- MIC, strain ID Q ([9]; strain ID Q, broth microdilution): =0.05
- MIC, strain ID E ([10]; strain ID E, broth microdilution): =0.05
- MIC, strain ID K ([11]; strain ID K, broth microdilution): 3.13
- MIC, strain ID I ([12]; strain ID I, broth microdilution): 6.25
- MIC, strain ID B ([13]; strain ID B, broth microdilution): > 50 µg/mL
- MIC, strain ID L ([14]; strain ID L, broth microdilution): 0.78
- MIC, strain ID J ([15]; strain ID J, broth microdilution): 6.25
- MIC, strain ID F ([16]; strain ID F, broth microdilution): 0.4
- MIC, strain ID N ([17]; strain ID N, broth microdilution): =0.05
- half-life [18]: 1 h
- AUC [18]: 2100 ng·h/mL
- clearance [18]: 121 mL/min/kg
- Vd [18]: 8 L/kg
- F, PO [18]: 21%
- MIC, strain ID M ([19]; strain ID M, broth microdilution): =0.05

Compound: C=C[C@]12OC(=O)N(CCCCn3cnc(-c4ccc(Cl)nc4)c3)[C@@H]1[C@@H](C)C(=O)[C@H](C)C[C@](C)(OC)[C@H](OC1O[C@H](C)C[C@H](N(C)C)[C@H]1O)[C@@H](C)C(=O)[C@@H](C)C(=O)O[C@@H]2CC (stereo partly shown) [XX]
- half-life [1]: 1.4 h
- Kp [1]: 94
- MIC ([3]; Table 10, Strain ID G (Table 8): Streptococcus pyogenes Stpy_8668): =0.05
- MIC ([4]; Table 10, Strain ID O (Table 8): Streptococcus pneumoniae Stpn_280-962): =0.05
- MIC ([5]; Table 10, Strain ID A (Table 8): Staphylococcus aureus Stau_29213): =0.05
- MIC ([6]; Table 10, Strain ID H (Table 8): Haemophilus influenzae Hain_49247): 3.13 µg/mL (≈ 3.65 µM)
- MIC ([7]; Table 10, Strain ID C (Table 8): Staphylococcus epidermidis Step_14990): =0.05
- MIC ([8]; Table 10, Strain ID D (Table 8): Staphylococcus epidermidis Step_f50654): =0.05
- MIC ([9]; Table 10, Strain ID R (Table 8): Streptococcus pneumoniae Stpn_Erm S 4297): =0.05
- MIC [20]: =0.05
- MIC ([10]; Table 10, Strain ID E (Table 8): Enterococcus faecalis Enfa_29212): =0.05
- MIC [21]: 0.2
- MIC ([11]; Table 10, Strain ID K (Table 8): Haemophilus influenzae Hain_953460299-3): 6.25
- MIC ([12]; Table 10, Strain ID I (Table 8): Haemophilus influenzae Hain_960730503-3): 3.13
- MIC ([13]; Table 10, Strain ID B (Table 8): Staphylococcus aureus Stau_33591): > 50 µg/mL
- MIC ([14]; Table 10, Strain ID L (Table 8): Haemophilus influenzae Hain_2762): 0.78
- MIC ([15]; Table 10, Strain ID J (Table 8): Haemophilus influenzae Hain_960820544-3): 3.13
- MIC ([16]; Table 10, Strain ID F (Table 8): Enterococcus faecalis Enfa_bc 11148-2): 0.1
- MIC ([17]; Table 10, Strain ID N (Table 8): Streptococcus pneumoniae Stpn_297-749): =0.05
- half-life [18]: 1.3 h
- AUC [18]: 2300 ng·h/mL
- clearance [18]: 107 mL/min/kg
- Vd [18]: 12 L/kg
- F, PO [18]: 26%
- MIC ([19]; Table 10, Strain ID M (Table 8): Streptococcus pneumoniae Stpn_49619): =0.05

— patent US7332476B2, “Pyridyl substituted ketolide antibiotics” (Novartis AG, priority 2003, dated 2008)
